According to patent US20120328521A1, “FORMULATIONS SUITABLE FOR PET IMAGING WITH HYDROPHOBIC PET AGENTS” (PIRAMAL IMAGING SA, priority 2009, published 2012):

What was measured:
Format in all cases: physicochemical
[1] = Adsorption of compound 1 onto sterile filters (assay in filtrate of formulation II)
Description: Formulation II comprising compound 1 was prepared as indicated above and filtered using selected sterile filters. Adsorption of compound 1 was determined before and after filtration using different filter types. Table 3 indicates the results of adsorption experiments using different filters.
Only hydrophobic filters show a low amount of compound 1 adsorbed onto the filter material.

[2] = Stability of formulation comprising HCl salt of compound 1 for 8 hours at room temperature (HPLC assay); settings: for assay of HCl salt of compound 1, batch 01 / assay of HCl salt of compound 1, batch 02 / assay of HCl salt of compound 1, batch 03 / assay of HCl salt of compound 1, mean [%]: formulation I, 5.51 μg/mL; for assay of HCl salt of compound 1, mean [%]: mean of 3 batches
Description: Since solutions of stilbenes are light sensitive, the solutions were stored under light protection.
A solution was prepared containing 5.51 μg/mL HCl salt of compound 1 as in formulation I. Assay was analysed after different timepoints. Three individual batches were prepared and analysed for assay and particulate matter. From these solutions samples were taken and analysed by HPLC.
Table 1 indicates the results of stability testing up to 8 hours of 3 individually manufactured batches.

[3] = Particulate matter testing of formulation I (HIAC Royco Liquid Particle Counting System); settings: up to 8 hours
Description: Solubility of the active was tested by visual inspection using an illuminated magnifying glass with black background and confirmed by experiments assessing particulate matter using the HIAC Royco, Liquid Particle Counting System, Model 9703.
The formation of particles was assessed using the HIAC Royco, Liquid Particle Counting System, Model 9703 and in addition to the channels normally inspected (10 μm and 25 μm), also the smaller channels (2 μm and 5 μm) were used to assess the stability of the formulation. The formulation I was sterile filtered and inspected at timepoint 1 hour and 8 hours.
Table 2 indicates the results of particulate matter testing up to 8 hours of 3 individually manufactured batches
Since the handling of the solutions was made under normal laboratory conditions, the particle background measured in the sterile filtered solutions have an exogenous nature.

- Analysis of assay in filtrate ([1]; Millipore Millex 0.2 μm, Order No SLGV013SL, PVDF, hydrophobic material rendered hydrophilic by surface modification): 97.3%
- Analysis of assay in filtrate ([1]; Sartorius Minisart 0.2 μm (blue), Order No 16534, Celluloseacetat, hydrophylic): 53%
- Analysis of assay in filtrate ([1]; Sartorius Minisart HY 0.2 μm, Order No 16596, PTFE, hydrophobic): 96.5%
- Analysis of assay in filtrate ([1]; Sartorius Minisart High Flow 0.2 μm, Order No 16532, PES, hydrophobic): 75%
- amount adsorbed onto the filter material ([1]; only hydrophobic filters): low amount
- chemical stability in the formulation ([2]; HCl salt, 8 hours): chemically stable
- assay of HCl salt of compound 1, batch 01 ([2]; time 1 hour): 100.2%
- assay of HCl salt of compound 1, batch 02 ([2]; time 1 hour): 98.3%
- assay of HCl salt of compound 1, batch 03 ([2]; time 1 hour): 96.9%
- assay of HCl salt of compound 1, mean [%] ([2]; time 1 hour): 98.5%
- assay of HCl salt of compound 1, batch 01 ([2]; time 2 hours): 101.2%
- assay of HCl salt of compound 1, batch 02 ([2]; time 2 hours): 98.4%
- assay of HCl salt of compound 1, batch 03 ([2]; time 2 hours): 97.17%
- assay of HCl salt of compound 1, mean [%] ([2]; time 2 hours): 98.9%
- assay of HCl salt of compound 1, batch 01 ([2]; time 3 hours): 101.1%
- assay of HCl salt of compound 1, batch 02 ([2]; time 3 hours): 98.7%
- assay of HCl salt of compound 1, batch 03 ([2]; time 3 hours): 96.2%
- assay of HCl salt of compound 1, mean [%] ([2]; time 3 hours): 98.7%
- assay of HCl salt of compound 1, batch 01 ([2]; time 4 hours): 101.2%
- assay of HCl salt of compound 1, batch 02 ([2]; time 4 hours): 98%
- assay of HCl salt of compound 1, batch 03 ([2]; time 4 hours): 97.4%
- assay of HCl salt of compound 1, mean [%] ([2]; time 4 hours): 98.9%
- assay of HCl salt of compound 1, batch 01 ([2]; time 5 hours): 101.5%
- assay of HCl salt of compound 1, batch 02 ([2]; time 5 hours): 98.6%
- assay of HCl salt of compound 1, batch 03 ([2]; time 5 hours): 96.6%
- assay of HCl salt of compound 1, mean [%] ([2]; time 5 hours): 98.9%
- assay of HCl salt of compound 1, batch 01 ([2]; time 6 hours): 101.5%
- assay of HCl salt of compound 1, batch 02 ([2]; time 6 hours): 98.7%
- assay of HCl salt of compound 1, batch 03 ([2]; time 6 hours): 95.7%
- assay of HCl salt of compound 1, mean [%] ([2]; time 6 hours): 98.6%
- assay of HCl salt of compound 1, batch 01 ([2]; time 7 hours): 101.7%
- assay of HCl salt of compound 1, batch 02 ([2]; time 7 hours): 98.5%
- assay of HCl salt of compound 1, batch 03 ([2]; time 7 hours): 96.5%
- assay of HCl salt of compound 1, mean [%] ([2]; time 7 hours): 98.9%
- assay of HCl salt of compound 1, batch 01 ([2]; time 8 hours): 102.7%
- assay of HCl salt of compound 1, batch 02 ([2]; time 8 hours): 98.7%
- assay of HCl salt of compound 1, batch 03 ([2]; time 8 hours): 96.5%
- assay of HCl salt of compound 1, mean [%] ([2]; time 8 hours): 99.3%
SMILES: CNc1ccc(/C=C/c2ccc(OCCOCCOCCF)cc2)cc1 [Compound 1]
- dissolution state / precipitation in formulation [3]: remains dissolved and is not precipitating
